Test results taken from PubChem BioAssay AID588620 (NMMLSC, 2011).
The source made the active and inactive calls.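 Rule for the calls: active = fitted half-maximal concentration below 30 µM for cell fluorescence in pump-free yeast, so likely self-fluorescent; inactive = the rest.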

Test: concentration-dependent intrinsic compound fluorescence, S. cerevisiae AD/pABC3, flow cytometry, Cherry Pick1 hits, artefact control for antifungal efflux pump inhibitor project, dose response (AID 588620);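 note: red emission of unstained cells excited at 488 nm measured in PE-Texas Red channel; cell median fluorescence as percent of DMSO wells so 100% equals vehicle baseline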
Settings: S. cerevisiae AD/pABC3 compound autofluorescence, flow cytometry; at 33.1 µM (top of the series)

Which fluorescence response, % of control does the source give for O=C1C(Cc2cccc([N+](=O)[O-])c2)SC(=Nc2ccccc2)N1c1ccccc1 (stereo unspecified) here?
Its fluorescence response, % of control is 116% (inactive).

With COc1cccc(C(=O)NC2CC(C)(C)Cc3c2cnn3-c2cccc(F)c2)c1OC (stereo unspecified) as the molecule, how does the fluorescence response, % of control read?
The fluorescence response, % of control was 121% (inactive).

With N#CCCN1CCN(C(=S)c2ccc(-c3ccc(Cl)c(Cl)c3)o2)CC1 as the molecule, how does the fluorescence response, % of control read?
Its fluorescence response, % of control is 75.6% (inactive).

With C[C@H](CO)N1C[C@H](C)[C@@H](CN(C)S(=O)(=O)c2ccccc2)Oc2c(NC(=O)Nc3ccccc3)cccc2C1=O as the molecule, how does the fluorescence response, % of control read?
Its fluorescence response, % of control is 83.7% (inactive).

Which fluorescence response, % of control does the source give for O=C(NC1CCCCC1)c1cc2ccccc2cc1O here?
Its fluorescence response, % of control is 78.8% (inactive).

Which fluorescence response, % of control does the source give for COc1ccc2sc(-c3ccccc3OC)c(-c3ccc(OCCN4CCCC4)cc3)c2c1 here?
The fluorescence response, % of control was 114% (inactive).

For COc1ccc(/C=c2\s/c(=C/C(=O)c3ccc(C)cc3)[nH]c2=O)c(OC)c1, which fluorescence response, % of control is on record?
The fluorescence response, % of control was 98.7% (inactive).

For O=C(CCCc1ccccc1)Nc1cccc([N+](=O)[O-])c1, which fluorescence response, % of control is on record?
Its fluorescence response, % of control is 86.2% (inactive).

With CC(C)c1ccc(/C=c2\sc3nc(-c4ccncc4)nn3c2=O)cc1 as the molecule, how does the fluorescence response, % of control read?
The fluorescence response, % of control was 82.5% (inactive).

For COc1ccc(CN2C(=O)C(C)Nc3ncnc(N4CCN(c5ccccc5)CC4)c32)cc1 (stereo unspecified), which fluorescence response, % of control is on record?
Its fluorescence response, % of control is 106% (inactive).

For Cc1ccccc1S(=O)(=O)Nc1nc2ccccc2nc1N1CCc2ccccc2C1, which fluorescence response, % of control is on record?
The fluorescence response, % of control was 103% (inactive).

Which fluorescence response, % of control does the source give for O=C(Nc1ccnc(-c2cccnc2)n1)c1cccc(Cl)c1Cl here?
The fluorescence response, % of control was 104% (inactive).

With CCOC(=O)c1sc2nc3c(SCC(=O)O)cc(C(=O)c4ccccc4O)cn3c(=O)c2c1C as the molecule, how does the fluorescence response, % of control read?
Its fluorescence response, % of control is 132% (inactive).

For Cc1noc(C)c1COc1ccccc1C(=O)N1CCN(c2cccc(C(F)(F)F)c2)CC1, which fluorescence response, % of control is on record?
The fluorescence response, % of control was 88.1% (inactive).

Which fluorescence response, % of control does the source give for O=C(/C=C/c1ccccc1[N+](=O)[O-])NCCc1ccc(F)cc1 here?
The fluorescence response, % of control was 90.8% (inactive).

Which fluorescence response, % of control does the source give for NC1=NC[C@H](Cc2ccccc2)N1CCCCC1CCCCC1 here?
Its fluorescence response, % of control is 127% (inactive).

With Cc1ccc(Cn2nnc3c(=O)[nH]c(C4CCN(S(=O)(=O)c5ccccc5F)CC4)nc32)cc1 as the molecule, how does the fluorescence response, % of control read?
Its fluorescence response, % of control is 90.8% (inactive).

For COc1ccc(NC(=O)Nc2cccc3c2O[C@H](CN(C)C(=O)NC2CCCCC2)[C@@H](C)CN([C@H](C)CO)C3=O)cc1, which fluorescence response, % of control is on record?
Its fluorescence response, % of control is 80.3% (inactive).

For COc1ccc2nc(NC(=O)c3ccoc3C)sc2c1, which fluorescence response, % of control is on record?
Its fluorescence response, % of control is 117% (inactive).

For O=C(Nc1ccc(NC(=O)c2cccs2)cc1)c1ccc2ccccc2c1, which fluorescence response, % of control is on record?
Its fluorescence response, % of control is 125% (inactive).

With O=C(CSc1nc2nc3c(cc2c(=O)n1-c1ccccc1)CCCC3)Nc1cccc2ccccc12 as the molecule, how does the fluorescence response, % of control read?
Its fluorescence response, % of control is 101% (inactive).

With Cc1cc(C)cc(-n2ncc3c2CCCC3NC(=O)c2cc(C)[nH]n2)c1 (stereo unspecified) as the molecule, how does the fluorescence response, % of control read?
The fluorescence response, % of control was 96.3% (inactive).

Which fluorescence response, % of control does the source give for COc1ccc(/C=C2\SC(c3ccc(C)cc3)=NC2=O)cc1OC here?
The fluorescence response, % of control was 289% (inactive).

Which fluorescence response, % of control does the source give for O=C(Cc1c2ccccc2nc2ccccc12)c1ccccc1 here?
Its fluorescence response, % of control is 98.7% (inactive).

Which fluorescence response, % of control does the source give for COc1ccccc1CNS(=O)(=O)c1ccc2c(c1)CC(C)N2C(=O)C1CCC1 (stereo unspecified) here?
Its fluorescence response, % of control is 85.7% (inactive).

Which fluorescence response, % of control does the source give for COc1ccc2nc(C)cc(Sc3nc4ccccc4s3)c2c1 here?
Its fluorescence response, % of control is 100% (inactive).

Which fluorescence response, % of control does the source give for CCOC(=O)c1cccc(NC(=O)c2ccc(NC(=O)c3ccco3)cc2)c1 here?
The fluorescence response, % of control was 85.8% (inactive).

Which fluorescence response, % of control does the source give for CC(CCc1ccccc1)NC(=O)c1ccc(NC(=O)c2cccc(Br)c2)cc1 (stereo unspecified) here?
Its fluorescence response, % of control is 88.6% (inactive).

With CCN(CC)C(=O)CSc1nnc(-c2ccncc2)n1N as the molecule, how does the fluorescence response, % of control read?
The fluorescence response, % of control was 127% (inactive).

With CCOC(=O)c1ccc(-c2cc(C)no2)[nH]1 as the molecule, how does the fluorescence response, % of control read?
The fluorescence response, % of control was 99.8% (inactive).

For COc1ccc(/C=C/C(=O)Nc2cccc(S(=O)(=O)N3CCCC3)c2)cc1OC, which fluorescence response, % of control is on record?
Its fluorescence response, % of control is 103% (inactive).

For O=c1[nH]c(C2CCN(S(=O)(=O)c3ccccc3C(F)(F)F)CC2)nc2c1nnn2Cc1cccc(F)c1, which fluorescence response, % of control is on record?
The fluorescence response, % of control was 83.7% (inactive).

Which fluorescence response, % of control does the source give for Cc1cccc(C)c1NC(=O)C1CC2CCC1C2 (stereo unspecified) here?
Its fluorescence response, % of control is 102% (inactive).

For O=C(/C=C/c1cccs1)N1CCC2(CC1)Oc1ccc(F)cc1C(=O)C21CC(c2ccccc2)=NO1 (stereo unspecified), which fluorescence response, % of control is on record?
The fluorescence response, % of control was 96.4% (inactive).

With COc1ccc2c(c1)C(=O)N1[C@H]3c4cc(Cl)ccc4OC[C@@H]3[C@H](c3ccccc3)[C@]1(C)C(=O)N2 as the molecule, how does the fluorescence response, % of control read?
Its fluorescence response, % of control is 98.5% (inactive).

With O=C(c1ccoc1)N1CCC2(CC1)Oc1ccc(F)cc1C(=O)C21CC(c2ccccc2)=NO1 (stereo unspecified) as the molecule, how does the fluorescence response, % of control read?
The fluorescence response, % of control was 85.1% (inactive).

With CN(C)CCN(C(=O)c1ccc(S(=O)(=O)N2CCc3ccccc32)cc1)c1nc2ccc(F)cc2s1 as the molecule, how does the fluorescence response, % of control read?
The fluorescence response, % of control was 196% (inactive).

Which fluorescence response, % of control does the source give for Cc1ccc(C)c(N2CCN(C(=O)C3CCCN(c4ncnc5c4nc4n5CCCCC4)C3)CC2)c1 (stereo unspecified) here?
Its fluorescence response, % of control is 89.1% (inactive).

For O=C(O)c1ccc(-c2ccc(/C=c3/sc4nc5ccccc5n4c3=O)o2)cc1Cl, which fluorescence response, % of control is on record?
The fluorescence response, % of control was 365% (inactive).

With CCOc1cc2[nH]c(=S)n(CCC(=O)NCc3ccc(OC)cc3)c(=O)c2cc1OCC as the molecule, how does the fluorescence response, % of control read?
Its fluorescence response, % of control is 93.1% (inactive).

Which fluorescence response, % of control does the source give for O=C(O)c1nccnc1C(=O)N1CCN(c2ccccc2)CC1 here?
The fluorescence response, % of control was 121% (inactive).
